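How tested: cells in 96-well plates exposed to compound for 48 hours at five concentrations. TGI marks complete inhibition of growth.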
Columns and labels:
Assay in all cases: inhibition of tumour cell growth, NCI panel, 48 h
[1] = test system: OVCAR-8 ovarian
[2] = test system: SK-MEL-28 melanoma
[3] = test system: OVCAR-4 ovarian
[4] = test system: SN12C renal
[5] = test system: SK-MEL-5 melanoma
[6] = test system: MCF7 breast
[7] = test system: CCRF-CEM leukemia
[8] = test system: U251 CNS
[9] = test system: MDA-N
[10] = test system: SF-539 CNS
[11] = test system: MDA-MB-231 breast
[12] = test system: MDA-MB-435
[13] = test system: BT-549 breast
[14] = test system: NCI/ADR-RES ovarian
[15] = test system: SNB-75 CNS
[16] = test system: SK-MEL-2 melanoma
[17] = test system: UO-31 renal

Row | SMILES | TGI [1] [µM] | TGI [2] [µM] | TGI [3] [µM] | TGI [4] [µM] | TGI [5] [µM] | TGI [6] [µM] | TGI [7] [µM] | TGI [8] [µM] | TGI [9] [µM] | TGI [10] [µM] | TGI [11] [µM] | TGI [12] [µM] | TGI [13] [µM] | TGI [14] [µM] | TGI [15] [µM] | TGI [16] [µM] | TGI [17] [µM]
1 | Cc1ccc(C(=O)Nc2ccc(CP(=O)(O)O)cc2CP(=O)(O)O)cc1NC(=O)c1cccc(NC(=O)Nc2cccc(C(=O)Nc3cc(C(=O)Nc4ccc(CP(=O)(O)O)cc4CP(=O)(O)O)ccc3C)c2)c1 | > 100 | > 100 | > 100 | > 100 | > 100 | > 100 | > 100 | > 100 | > 100 | > 100 | > 100 | > 100 | > 100 | > 100 | > 100 | > 100 | > 100
2 | c1ccc2c(c1)cc1c3[nH]c4ccccc4c3ccn21 | > 10 | > 10 | > 10 | > 10 | > 10 | > 10 | > 10 | > 10 | > 10 | > 10 | > 10 | > 10 | > 10 | > 10 | > 10 | > 10 | > 10
3 | Cc1ccc(C)n1-c1ccccc1C1C=CN(C(=O)OC(C)(C)C)C=C1 | > 100 | > 100 | > 100 | > 100 | > 100 | 32.6 | > 100 | 77.8 | > 100 | > 100 | 53.3 | > 100 | > 100 | > 100 | 56.6 | 35.6 | > 100
4 | O=C(NNCc1ccco1)c1cc2ccccc2[nH]1 | > 86.5 | > 100 | > 71.8 | > 100 | > 100 | > 46.3 | > 100 | > 40.9 | > 100 | > 84.4 | > 100 | > 100 | > 90.5 | > 80.8 | > 100 | > 100 | > 100
5 | Nc1ccc(CCSSCCc2ccc(N)cc2)cc1 | > 88.2 | > 78.6 | > 100 | 60.1 | > 52.7 | > 100 | > 100 | 41.6 | > 79.6 | 63.5 | > 91.1 | > 86.9 | 79.1 | > 74.4 | > 94.5 | 43.4 | > 82.8
6 | N#Cc1ccc(C(=O)/C=C/c2ccc(O)c(O)c2)cc1 | > 54.8 | 29 | 25.7 | 28.9 | 28.5 | 26 | 14.3 | 26.2 | 30.7 | 29.7 | 30.7 | 28.5 | 25.3 | > 65.8 | 36.6 | 33.8 | 25.1
7 | Cc1ccc(C2=C(C#N)C(=O)N3CCN=C3S2)cc1 | > 100 | > 100 | > 100 | > 100 | > 100 | > 100 | > 100 | > 100 | > 100 | > 100 | > 100 | > 100 | > 100 | > 100 | > 100 | > 100 | > 100

Source: PubChem BioAssay (NCI)
